Three compounds from US7989466B2, “Methods to inhibit or augment an inflammatory response” (Cambridge Enterprise Limited, priority 1999, dated 2011) can be followed below.

Positions of bridges follow the written chain, without caps; N, C: chain ends. Non-standard residues stand in square brackets, D forms with d. Residues, ends and D or L forms follow the SMILES beside them.

The test system of data set [1] is HIV (IIIb). Briefly: HIV infectivity of Jurkat T-cells, p24gag immunofluorescence. Type of data set: cell-based. The conditions noted are these: 100 μM peptide (SDF1α 100 ng/ml), about 48 hours after infection. How it is done: (a) HIV (IIIb) replication in cultures of Jurkat T-cells was estimated by measuring the supernatant reverse transcriptase activity two weeks after infection. Peptide 2 and peptide 3 were at 100 μM final concentration and SDF-1α was added at 100 ng/ml final concentration 1 hour prior to exposure to virus. Values are mean±SEM from 12 wells, expressed as the percentage of the reverse transcriptase activity in the supernatant from the control wells. The experiment shown is typical of six separate experiments. (b) HIV (IIIb) infectivity of Jurkat T-cells was estimated by staining cells treated identically to those in (a) for p24^gag expression. Values are mean±S.D. percentage of cells stained for p24gag averaged from 12 fields of view from each of two separate wells. (c) HIV (MN) infectivity of THP-1 cells measured as in (b). […] Both fields of view contain 40-50 cells (assessed by Hoeschst 33345 staining viewed under UV illumination conditions).
Jurkat cells following HIV infection were attached to 8-well chamber slides (Becton-Dickinson) by spinning the slides using a plate rotor in a Labofuge centrifuge (Haeraeus) at 3,000×g for 5 minutes. […] A threshold was then applied to each image which was the lowest threshold that detected <1% of the pixels of an image of uninfected cells stained under identical conditions. The number of objects exceeding this threshold in each field of view were counted. […]

Data set [2] deals with T1, short splice variant D2 dopamine receptor (Homo sapiens, UniProt P14416).
T1 construct: purchased RBI/Sigma D-179
T1 sequence (P14416 1-414 isoform P14416-2): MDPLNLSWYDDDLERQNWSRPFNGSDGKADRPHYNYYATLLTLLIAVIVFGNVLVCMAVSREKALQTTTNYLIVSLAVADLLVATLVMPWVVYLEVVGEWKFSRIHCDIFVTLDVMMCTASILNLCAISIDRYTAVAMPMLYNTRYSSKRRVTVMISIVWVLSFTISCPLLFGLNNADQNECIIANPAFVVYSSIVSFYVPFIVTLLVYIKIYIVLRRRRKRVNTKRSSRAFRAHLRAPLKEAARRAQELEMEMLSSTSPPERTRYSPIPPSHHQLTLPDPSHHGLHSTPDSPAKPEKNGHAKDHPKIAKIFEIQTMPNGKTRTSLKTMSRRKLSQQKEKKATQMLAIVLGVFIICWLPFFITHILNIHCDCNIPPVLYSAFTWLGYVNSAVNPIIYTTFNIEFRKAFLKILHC
As to the kind of experiment: Dopamine receptor membrane binding (3H-Spiperone). To be noted: 100 μM highest concentration tested; read-out: ED50 for competition of spiperone binding to short splice variant D2 dopamine receptor. How it is done: For dopamine receptor binding, membranes (D-179, RBI/Sigma) are diluted into binding buffer (75 mM Tris pH 7.4, 12.5 mM MgCl2 and 2 mM EDTA). For example, 10 μl of membranes are diluted in 500 μl of binding buffer (i.e., 1:50 dilution), which is aliquoted into labelled tubes. Cold competitor or test competitor is added, (e.g., 5 μl of 100× stock solution; 5 μl of 1 mM haloperidol solution (H-100, RBI/Sigma in DMSO). Radioligand is then added (3H-Spiperone, TRK 818, Amersham, 250 μCi in 250 μl, 10.5 μM at 95 Ci/mmol). For competition studies, 0.5 nM is used. A 100× stock (i.e., 50 nM) is made by diluting the commercial stock 1:210 in binding buffer, and 5 μl is added to every tube. Control tubes have radioligand but no membranes. The mixtures are vortexed, then spun very briefly. The mixtures are then incubated for 1 hour at 27° C. in a water bath. The mixture is filtered through GF/C filters over a vacuum. Each filter is pre-soaked in polyethyleneimine (0.3% in water; add 1 ml of 10% stock (P-261; RBI/Sigma) to 33 ml of MilliQ water). The tubes are washed with 2-3 ml of wash buffer (50 mM Tris pH 7.4) and the wash filtered. The filters are then rinsed with 3×5 ml of wash buffer, air dried, placed in a scintillation vial and 4.5 ml of scintillant added. The activity on the filter is then determined.

Data set [3] can be described thus: Plasma concentration after a single intraperitoneal dose. Type of data set: in vivo. The conditions noted are these: ip, 24 hours after a single intraperitoneal dose of 1 mg in 250 μL saline. How it is done:
For example, to prepare a peptide 3 derivative, peptide 3(3-12)[MCP-1] was modified according to Jameson et al. (Nature, 368, 744 (1994)), which yielded CRD-Cys13Leu4Ile11peptide 3(3-12)[MCP-1] (FIG. 3). CRD-Cys13Leu4Ile11peptide 3(3-12)[MCP-1], which had very similar properties to peptide 3(1-12)[MCP-1] […] CRD-Cys13Leu4Ile11peptide 3(3-12)[MCP-1] was also resistant to hydrolysis in vivo and allowed therapeutically useful plasma concentrations to be achieved (>10 μM 24 hours after a single intraperitoneal dose of 1 mg of CRD-Cys13Leu4Ile11peptide 3(3-12)[MCP-1] in 250 μL saline).

For EICADPKQKWVQ [peptide 3(1-12)[MCP-1]], the “inhibition of viral infectivity, p24gag staining, Jurkat T-cells” value in data set [1] is “ineffective”.

On to `C=CCCCCCCCCC(=O)N[C@H]1CCC(=O)NC1=O` [A-I (NR58.4), [3S]-3-(undec-10-enoylamino)piperidine-2,6-dione], for which, in data set [2], the EC50 is greater than 100 µM.

Compound `CC[C@@H](C)[C@H]1NC(=O)[C@@H](CCC(N)=O)NC(=O)[C@H](N)CSSC[C@H](C(N)=O)NC(=O)[C@@H](CC(C)C)NC(=O)[C@@H](CC(=O)O)NC(=O)[C@H]2CCCN2C(=O)[C@@H](CCCCN)NC(=O)[C@@H](CCC(N)=O)NC(=O)[C@@H](CCCCN)NC(=O)[C@@H](Cc2c[nH]c3ccccc23)NC1=O` (H-[dC][dQ][dI][dW][dK][dQ][dK][dP][dD][dL][dC]-NH2; disulfide 1-11; N-terminus assumed) came in with a level at time molar at 24 h in data set [3] greater than 10 µM.
